Experimental data taken from the supplement of paper PMC9549728.
Structures can show the parent of a compound that is named as a salt.

Assays:
Experiment in all cases: IC50 (viability, PrestoBlue) (log10 nM)
Details in all cases: exposure time: 72 h
[1] = system: murine gastric organoid RAS-activated (Kras G12D; Tp53 R172H)
Experimental: (§1)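 Murine gastric corpus organoids (normal uninduced; RAS-activated Kras G12D/Tp53 R172H; diffuse Cdh1/Apc loss; WNT-activated Apc loss/Tp53 R172H) were seeded in Matrigel into pre-spotted 384-well plates. The plates held a 196-compound library at 6.7 nM to 25,004 nM (9 doses) and were incubated 72 h. Viability was read by PrestoBlue fluorescence (560/590 nm). IC50 came from non-linear regression (Prism), reported as log10 IC50 in nM, mean of 3 passages x 2 wells.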

[2] = system: murine gastric organoid WNT-activated (Apc fl/fl; Tp53 R172H)
Experimental: as §1

[3] = system: murine gastric organoid diffuse (Cdh1 fl/fl; Apc fl/fl)
Experimental: as §1

[4] = system: murine normal gastric organoid
Experimental: as §1

Structure (SMILES): Cn1cnc2c(F)c(Nc3ccc(Br)cc3Cl)c(C(=O)NOCCO)cc21 [Selumetinib]
- IC50 (log10 nM) [1]: 2.61
- IC50 (log10 nM) [2]: 3.32
- IC50 (log10 nM) [3]: 3.15
- IC50 (log10 nM) [4]: 2.47

Structure (SMILES): COC(=O)[C@]12CCC(C)(C)C[C@H]1[C@H]1C(=O)C=C3[C@@]4(C)C=C(C#N)C(=O)C(C)(C)[C@@H]4CC[C@@]3(C)[C@]1(C)CC2 [bardoxolone methyl]
- IC50 (log10 nM) [1]: 2.38
- IC50 (log10 nM) [2]: 2.92
- IC50 (log10 nM) [3]: 3.24
- IC50 (log10 nM) [4]: 2.61

Structure (SMILES): O=C1c2c(O)ccc(O)c2C(=O)c2c(NCCNCCO)ccc(NCCNCCO)c21 [Mitoxantrone dihydrochloride]
- IC50 (log10 nM) [1]: 2.2
- IC50 (log10 nM) [2]: 3.38
- IC50 (log10 nM) [3]: 2.41
- IC50 (log10 nM) [4]: 2.13

Structure (SMILES): O=C(Nc1cccc(Cl)c1)Nc1ncc(CCNc2ncnc3ccsc23)s1 [SNS-314]
- IC50 (log10 nM) [1]: 2.47
- IC50 (log10 nM) [2]: 2.87
- IC50 (log10 nM) [3]: 4.02
- IC50 (log10 nM) [4]: 3.2

Structure (SMILES): CCCCCCCCCCCCCCCCCCOP(=O)([O-])OC1CC[N+](C)(C)CC1 [Perifosine]
- IC50 (log10 nM) [1]: < 0.826
- IC50 (log10 nM) [2]: 1.16
- IC50 (log10 nM) [3]: > 4.4
- IC50 (log10 nM) [4]: < 0.826

Structure (SMILES): CCN1CCN(Cc2ccc(Nc3ncc(F)c(-c4cc(F)c5nc(C)n(C(C)C)c5c4)n3)nc2)CC1
- IC50 (log10 nM) [1]: 2.88
- IC50 (log10 nM) [2]: 2.47
- IC50 (log10 nM) [3]: 2.7
- IC50 (log10 nM) [4]: 2.94

Structure (SMILES): CO[C@@]12[C@H](COC(N)=O)C3=C(C(=O)C(C)=C(N)C3=O)N1C[C@@H]1N[C@@H]12 [Mitomycin C]
- IC50 (log10 nM) [1]: 2.5
- IC50 (log10 nM) [2]: 2.7
- IC50 (log10 nM) [3]: 2.68
- IC50 (log10 nM) [4]: 2.64

Structure (SMILES): O=c1[nH]c(=O)n([C@H]2C[C@H](O)[C@@H](CO)O2)cc1F [Floxuridine]
- IC50 (log10 nM) [1]: 3.16
- IC50 (log10 nM) [2]: 1.61
- IC50 (log10 nM) [3]: 3.8
- IC50 (log10 nM) [4]: 2.96

Structure (SMILES): Nc1nc(Cl)nc2c1ncn2[C@H]1C[C@H](O)[C@@H](CO)O1 [Cladribine]
- IC50 (log10 nM) [1]: 3.08
- IC50 (log10 nM) [2]: 3.27
- IC50 (log10 nM) [3]: 3.04
- IC50 (log10 nM) [4]: 3.19

Structure (SMILES): Nc1ncn([C@H]2C[C@H](O)[C@@H](CO)O2)c(=O)n1 [Decitabine]
- IC50 (log10 nM) [1]: > 4.4
- IC50 (log10 nM) [2]: 3.34
- IC50 (log10 nM) [3]: 3.85
- IC50 (log10 nM) [4]: 2.9

Structure (SMILES): CSc1ccc2c(c1)N(CCC1CCCCN1C)c1ccccc1S2 (centres undefined) [Thioridazine hydrochloride]
- IC50 (log10 nM) [1]: 4
- IC50 (log10 nM) [2]: 3.52
- IC50 (log10 nM) [3]: 4.13
- IC50 (log10 nM) [4]: 3.9

Structure (SMILES): C/C=C1\NC(=O)[C@H]2CSSCC/C=C/[C@H](CC(=O)N[C@H](C(C)C)C(=O)N2)OC(=O)[C@H](C(C)C)NC1=O [Romidepsin]
- IC50 (log10 nM) [1]: < 0.826
- IC50 (log10 nM) [2]: 0.997
- IC50 (log10 nM) [3]: 0.852
- IC50 (log10 nM) [4]: < 0.826

Structure (SMILES): CCc1cnn2c(NCc3ccc[n+]([O-])c3)cc(N3CCCC[C@H]3CCO)nc12 [Dinaciclib]
- IC50 (log10 nM) [1]: > 4.4
- IC50 (log10 nM) [2]: 4.28
- IC50 (log10 nM) [3]: 4.11
- IC50 (log10 nM) [4]: > 4.4

Structure (SMILES): COc1cc([C@@H]2c3cc4c(cc3[C@@H](O[C@@H]3O[C@@H]5CO[C@@H](C)O[C@H]5[C@H](O)[C@H]3O)[C@H]3COC(=O)[C@H]23)OCO4)cc(OC)c1O [Etoposide]
- IC50 (log10 nM) [1]: 2.89
- IC50 (log10 nM) [2]: 3.07
- IC50 (log10 nM) [3]: 3.06
- IC50 (log10 nM) [4]: 2.67

Structure (SMILES): CC(C)Nc1cc(-c2c[nH]c(C(=O)N[C@H](CO)c3cccc(Cl)c3)c2)c(Cl)cn1 [Ulixertinib]
- IC50 (log10 nM) [1]: 3.09
- IC50 (log10 nM) [2]: 2.96
- IC50 (log10 nM) [3]: 3.42
- IC50 (log10 nM) [4]: 2.79

Structure (SMILES): Nc1ccn([C@@H]2O[C@H](CO)[C@@H](O)C2(F)F)c(=O)n1 [Gemcitabine]
- IC50 (log10 nM) [1]: 1.54
- IC50 (log10 nM) [2]: 1.74
- IC50 (log10 nM) [3]: 1.53
- IC50 (log10 nM) [4]: 1.23

Structure (SMILES): CC1(C)CCC(CN2CCN(c3ccc(C(=O)NS(=O)(=O)c4ccc(NCC5CCOCC5)c([N+](=O)[O-])c4)c(Oc4cnc5[nH]ccc5c4)c3)CC2)=C(c2ccc(Cl)cc2)C1 [ABT-199]
- IC50 (log10 nM) [1]: 4.06
- IC50 (log10 nM) [2]: 3.1
- IC50 (log10 nM) [3]: 4.17
- IC50 (log10 nM) [4]: 3.61

Structure (SMILES): C[C@@H](Oc1cc(-c2cnn(C3CCNCC3)c2)cnc1N)c1c(Cl)ccc(F)c1Cl [Crizotinib]
- IC50 (log10 nM) [1]: 2.96
- IC50 (log10 nM) [2]: 2.95
- IC50 (log10 nM) [3]: 3.22
- IC50 (log10 nM) [4]: 3.4

Structure (SMILES): COc1cc2/c(=N/c3ccc(Br)cc3F)nc[nH]c2cc1OCC1CCN(C)CC1 [Vandetanib]
- IC50 (log10 nM) [1]: 2.63
- IC50 (log10 nM) [2]: 2.64
- IC50 (log10 nM) [3]: 2.76
- IC50 (log10 nM) [4]: 3.95

Structure (SMILES): CC(C)c1cc(-c2n[nH]c(=O)n2-c2ccc3c(ccn3C)c2)c(O)cc1O [Ganetespib]
- IC50 (log10 nM) [1]: 1.59
- IC50 (log10 nM) [2]: < 0.826
- IC50 (log10 nM) [3]: 1.5
- IC50 (log10 nM) [4]: 1.59

Structure (SMILES): NC(=O)N1CCC(CC(=O)N2CCC([C@H]3c4ncc(Br)cc4CCc4cc(Cl)cc(Br)c43)CC2)CC1 [lonafarnib]
- IC50 (log10 nM) [1]: 3.03
- IC50 (log10 nM) [2]: 3.47
- IC50 (log10 nM) [3]: 4.3
- IC50 (log10 nM) [4]: 3.33

Structure (SMILES): CNC(=O)c1cc(Oc2ccc(NC(=O)Nc3ccc(Cl)c(C(F)(F)F)c3)cc2)ccn1 [Sorafenib]
- IC50 (log10 nM) [1]: 3.98
- IC50 (log10 nM) [2]: 3.9
- IC50 (log10 nM) [3]: 3.88
- IC50 (log10 nM) [4]: 3.78

Structure (SMILES): CNC(=O)c1cc(Oc2ccc(NC(=O)Nc3ccc(Cl)c(C(F)(F)F)c3)c(F)c2)ccn1 [Regorafenib]
- IC50 (log10 nM) [1]: 4.14
- IC50 (log10 nM) [2]: 3.86
- IC50 (log10 nM) [3]: 3.97
- IC50 (log10 nM) [4]: 3.94

Structure (SMILES): Cc1ccc(NC(=O)c2ccc(CN3CCN(C)CC3)cc2)cc1Nc1nc(-c2cccnc2)cs1 [Masitinib mesylate]
- IC50 (log10 nM) [1]: 2.38
- IC50 (log10 nM) [2]: 3.35
- IC50 (log10 nM) [3]: 4.25
- IC50 (log10 nM) [4]: 3.68

Structure (SMILES): CC(C)[C@H](O)C(=O)N[C@@H](C)C(=O)N[C@@H]1C(=O)N(C)CCc2ccccc21 [Semagacestat]
- IC50 (log10 nM) [1]: > 4.4
- IC50 (log10 nM) [2]: 2.37
- IC50 (log10 nM) [3]: > 4.4
- IC50 (log10 nM) [4]: 4.35

Structure (SMILES): C[C@]1(O)C[C@@H](c2nc(-c3ccc4ccc(-c5ccccc5)nc4c3)c3c(N)nccn32)C1 [Linsitinib]
- IC50 (log10 nM) [1]: < 0.826
- IC50 (log10 nM) [2]: 2.69
- IC50 (log10 nM) [3]: 3.68
- IC50 (log10 nM) [4]: 2.84

Structure (SMILES): COc1ccc(-c2cc3c(C)nc(N)nc3n([C@H]3CC[C@H](OCCO)CC3)c2=O)cn1
- IC50 (log10 nM) [1]: 2.17
- IC50 (log10 nM) [2]: 2.11
- IC50 (log10 nM) [3]: 2
- IC50 (log10 nM) [4]: 2.08

Structure (SMILES): COc1cc(OC)c(/C=C/S(=O)(=O)Cc2ccc(OC)c(NCC(=O)O)c2)c(OC)c1 [Rigosertib sodium]
- IC50 (log10 nM) [1]: 1.35
- IC50 (log10 nM) [2]: 2.01
- IC50 (log10 nM) [3]: 1.55
- IC50 (log10 nM) [4]: 1.86

Structure (SMILES): S=P(N1CC1)(N1CC1)N1CC1 [Thio-TEPA]
- IC50 (log10 nM) [1]: 4.17
- IC50 (log10 nM) [2]: 4.16
- IC50 (log10 nM) [3]: > 4.4
- IC50 (log10 nM) [4]: 4.21

Structure (SMILES): CNC(=O)c1ccccc1Sc1ccc2c(/C=C/c3ccccn3)n[nH]c2c1 [Axitinib]
- IC50 (log10 nM) [1]: 3.3
- IC50 (log10 nM) [2]: 2.75
- IC50 (log10 nM) [3]: 3.78
- IC50 (log10 nM) [4]: 3.98

Structure (SMILES): Cc1c(N)nc([C@H](CC(N)=O)NC[C@H](N)C(N)=O)nc1C(=O)N[C@H](C(=O)N[C@H](C)[C@@H](O)[C@H](C)C(=O)N[C@H](C(=O)NCCc1nc(-c2nc(C(=O)NCCC[S+](C)C)cs2)cs1)[C@@H](C)O)[C@@H](OC1OC(CO)C(O)C(O)C1OC1OC(CO)C(O)C(OC(N)=O)C1O)c1cnc[nH]1 (some centres undefined) [Bleomycin]
- IC50 (log10 nM) [1]: 3.83
- IC50 (log10 nM) [2]: > 4.4
- IC50 (log10 nM) [3]: 3.57
- IC50 (log10 nM) [4]: 3.85
